The values below come from US20030143729A1 (Synaptic Pharmaceutical Corporation, priority 1992, published 2003).

In one test the target is T1, hBGT-1 (Homo sapiens, UniProt P48065).
T1 sequence (P48065 1-614): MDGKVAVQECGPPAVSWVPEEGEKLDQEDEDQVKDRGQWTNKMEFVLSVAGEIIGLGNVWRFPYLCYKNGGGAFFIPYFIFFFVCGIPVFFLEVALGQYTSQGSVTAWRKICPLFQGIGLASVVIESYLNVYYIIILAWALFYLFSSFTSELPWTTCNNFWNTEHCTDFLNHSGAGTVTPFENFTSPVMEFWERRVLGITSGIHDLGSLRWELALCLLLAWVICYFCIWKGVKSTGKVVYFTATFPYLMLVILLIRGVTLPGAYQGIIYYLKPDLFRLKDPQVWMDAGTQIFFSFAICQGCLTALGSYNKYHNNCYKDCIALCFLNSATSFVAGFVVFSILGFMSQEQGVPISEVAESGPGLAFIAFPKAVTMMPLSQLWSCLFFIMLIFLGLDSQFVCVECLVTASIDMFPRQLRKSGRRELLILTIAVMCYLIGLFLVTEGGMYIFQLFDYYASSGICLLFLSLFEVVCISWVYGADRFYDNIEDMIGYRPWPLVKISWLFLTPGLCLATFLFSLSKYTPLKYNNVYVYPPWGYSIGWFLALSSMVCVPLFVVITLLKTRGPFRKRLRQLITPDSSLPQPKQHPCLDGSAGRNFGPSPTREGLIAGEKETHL
The test is described as follows: [3H]GABA uptake, full competition curves at cloned hBGT-1 (transient transfection, COS cells). The class given is cell-based. Set-up: expressed in transfected cells; host or cells: COS cells, transient (DEAE-dextran).

The next test has as its system rat brain aggregates. The experiment in a line: [3H]GABA uptake by brain aggregates. The format is cell-based. As to the method: Briefly, adult rat brains were removed from the skull and the cerebral cortex was dissected and placed in ice-cold HBS. […] The preparation was washed once by centrifugation, then resuspended in HBS.
The filters were washed with ice-cold HBS, punched into vials, and radioactivity determined by scintillation counting. Protein was determined in an aliquot of the aggregate preparation using the BIO-RAD protein assay kit.

A further test addresses T2, GAT-3 (Rattus norvegicus, UniProt P31647).
T2 sequence (P31647 1-627): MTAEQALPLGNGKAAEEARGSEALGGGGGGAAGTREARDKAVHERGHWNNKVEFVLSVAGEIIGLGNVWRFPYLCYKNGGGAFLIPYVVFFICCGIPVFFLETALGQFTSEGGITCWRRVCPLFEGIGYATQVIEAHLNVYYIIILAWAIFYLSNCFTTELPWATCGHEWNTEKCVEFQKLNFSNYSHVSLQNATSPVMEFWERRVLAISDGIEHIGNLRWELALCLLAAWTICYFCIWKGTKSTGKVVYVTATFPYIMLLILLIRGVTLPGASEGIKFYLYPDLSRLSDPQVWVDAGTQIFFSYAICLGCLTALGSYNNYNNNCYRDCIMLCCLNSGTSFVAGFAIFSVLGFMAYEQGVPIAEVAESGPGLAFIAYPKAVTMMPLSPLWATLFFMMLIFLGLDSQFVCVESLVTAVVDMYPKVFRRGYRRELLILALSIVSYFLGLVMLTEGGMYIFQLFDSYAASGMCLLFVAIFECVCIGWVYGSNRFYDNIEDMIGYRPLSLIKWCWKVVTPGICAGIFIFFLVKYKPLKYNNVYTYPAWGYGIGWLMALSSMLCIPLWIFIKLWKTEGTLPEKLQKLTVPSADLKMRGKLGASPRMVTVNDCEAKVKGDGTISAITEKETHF
The experiment in a line: [3H]GABA uptake by COS cells transfected with GAT-3 (rB8b or K438-rB8b). The format is cell-based.

The target in another test is rat GAT-1 (Rattus norvegicus, UniProt P23978). The test is described as follows: cell-based.
A further test has as its target T3, TAUT (Rattus norvegicus, UniProt P31643).
T3 sequence (P31643 1-621): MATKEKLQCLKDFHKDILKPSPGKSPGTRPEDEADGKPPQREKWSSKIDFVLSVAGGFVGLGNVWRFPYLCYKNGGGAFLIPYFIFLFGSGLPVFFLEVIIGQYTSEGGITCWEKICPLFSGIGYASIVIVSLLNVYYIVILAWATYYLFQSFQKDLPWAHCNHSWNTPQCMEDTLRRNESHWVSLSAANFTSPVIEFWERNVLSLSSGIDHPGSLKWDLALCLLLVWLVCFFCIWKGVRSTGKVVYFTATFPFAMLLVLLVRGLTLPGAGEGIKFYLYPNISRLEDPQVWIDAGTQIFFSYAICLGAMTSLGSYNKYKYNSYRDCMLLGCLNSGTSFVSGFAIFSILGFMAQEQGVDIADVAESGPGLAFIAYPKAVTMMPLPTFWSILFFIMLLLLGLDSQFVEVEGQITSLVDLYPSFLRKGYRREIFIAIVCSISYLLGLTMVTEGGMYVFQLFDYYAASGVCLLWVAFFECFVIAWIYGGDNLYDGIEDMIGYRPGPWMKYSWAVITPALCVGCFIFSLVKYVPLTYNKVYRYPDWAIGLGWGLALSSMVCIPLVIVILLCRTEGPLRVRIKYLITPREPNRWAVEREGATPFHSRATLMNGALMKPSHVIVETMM
The test is described as follows: [3H]taurine uptake, full competition curves at cloned TAUT (transient transfection, COS cells). The format is cell-based.

The mark [1] stands for this setting: Rattus norvegicus, read-out: IC50 for inhibition of [3H]GABA uptake, rat brain aggregates, control.
The mark [2] stands for this setting: COS, read-out: % Inhibition of [3H]GABA uptake, GAT-3.
Setting [3] is: full competition curves, 50 nM [3H]taurine, read-out: IC50 for inhibition of [3H]taurine uptake, TAUT (Table 8).
Where [4] appears, read: read-out: IC50 for inhibition of [3H]GABA uptake, hBGT-1 (Table 8), full competition curves, 50 nM [3H]GABA.
The mark [5] stands for this setting: read-out: IC50 for inhibition of [3H]GABA uptake, rat brain aggregates, control, absence of NNC-711.
Where [6] appears, read: read-out: IC50 for inhibition of [3H]GABA uptake, rat brain aggregates, with NNC-711, in the presence of 10 μM NNC-711.

Read-outs that look alike come from different tables or passages of the source.

Protocol for rat GAT-1: Cells grown in 24-well plates were washed 3× with HEPES-buffered saline (HBS, in mM: NaCl, 150; HEPES, 20; CaCl2, 1; glucose, 10; KCl, 5; MgCl2, 1; pH 7.4) and allowed to equilibrate on a 37° C. slide warmer. After 10 minutes the medium was removed and unlabeled drugs in HBS were added (450 μl/well). […] Plates were incubated at 37° C. for 10 minutes, then washed rapidly 3× with ice-cold HBS, using a 24-position plate washer (Brandel, Gaithersburg, Mass.; model PW-12). Cells were solubilized with 0.05% sodium deoxycholate/0.1N NaOH (0.25 ml/well), an aliquot neutralized with 1N HCl, and radioactivity was determined by scintillation counting. Protein was quantified in an aliquot of the solubilized cells using a BIO-RAD protein assay kit, according to the manufacturer's directions.
Lipophilic inhibitors were dissolved in DMSO.
Data Analysis: Competition curves were conducted in duplicate, using 10 concentrations of unlabeled drug.
COS cells grown in 75 cm^2 or 150 cm^2 flasks in DMEM with 10% bovine calf serum, 100 U/ml penicillin G, and 100 μg/ml streptomycin sulfate (37° C., 5% CO2) were transfected using DEAE-dextran. On the day following transfection the cells were split into 24-well assay plates coated with poly-D-lysine (10 μg/ml), and transport was measured 24 hours later.
After 10 minutes the medium was removed and unlabeled drugs in HBS were added (450 μl/well). […] Plates were incubated at 37° C. for 10 minutes, then washed rapidly 3× with ice-cold HBS, using a 24-position plate washer (Brandel, Gaithersburg, Mass.; model PW-12). Cells were solubilized with 0.05% sodium deoxycholate/0.1N NaOH (0.25 ml/well), an aliquot neutralized with 1N HCl, and radioactivity was determined by scintillation counting. Protein was quantified in an aliquot of the solubilized cells using a BIO-RAD protein assay kit, according to the manufacturer's directions.

For `N[C@@H]1CCC[C@H](C(=O)O)C1` (relative stereo) [ACHC, cis-3-aminocyclohexanecarboxylic acid], the IC50 came to 1070 µM on hBGT-1, 31 µM in the test on rat brain aggregates (setting [1]), 132 ± 44 µM on rat GAT-1 and 9230 µM at TAUT. Also, the inhibition at 100 µM on GAT-3 (setting [2]) worked out at 0%.
With `NCCCC(=O)O` [GABA, gamma-aminobutyric acid], on GAT-3 (various concentrations of [3H]GABA, 30 seconds), the “VMAX of GABA transport, COS/rB8b and/or COS/K438-rB8b (GAT-3)” value stood at 3.0±0.9 nmoles/mg protein. The IC50 on TAUT (setting [3]) came out at 720 ± 170 µM.
For `N=C(N)NCCS(=O)(=O)O` [GES, guanidinoethanesulfonic acid], the IC50 was determined as 4800 µM on hBGT-1 (setting [4]), 1340 µM in the test with rat brain aggregates (setting [5]), 410 ± 100 µM in the test on rat brain aggregates (setting [6]) and 129 µM at TAUT (setting [3]).
In the case of `NCC[C@H](N)C(=O)O` [L-DABA, L-(2,4)diaminobutyric acid], the IC50 amounted to 528 ± 62 µM at hBGT-1, 22 ± 3 µM with rat brain aggregates (setting [1]), 128 ± 12 µM at rat GAT-1 and 41800 µM on TAUT. Also, the inhibition at 100 µM at GAT-3 (setting [2]) came out at 4 ± 1%.
For `O=C(O)C1=CCCN(CCON=C(c2ccccc2)c2ccccc2)C1` [NNC-711], the IC50 at hBGT-1 (setting [4]) was determined as 3570 µM; in the test with rat brain aggregates (read-out: IC50 for GABA uptake, rat brain aggregates) it was 0.09 µM; in the test with rat brain aggregates (setting [6]), 323 ± 70 µM; on TAUT (setting [3]), 207 µM. Further, in the test on rat brain aggregates (NNC-711 at 10 μM), the “[3H]GABA uptake that persists, rat brain aggregates” value was 15±2%.
For the compound `O=C(O)C1=CCCNC1` [guvacine], the concentration for half-maximal inhibition (IC50) was found to be 1420 µM at hBGT-1, 10 ± 2 µM in the test on rat brain aggregates (setting [1]), 39 ± 6 µM at rat GAT-1 and 1030 µM at TAUT (setting [3]). The inhibition at 10 µM on GAT-3 (setting [2]) was 8 ± 5%.
Take `NCCS(=O)O` [hypotaurine]: the IC50 on hBGT-1 turned out to be 536 ± 41 µM; with rat brain aggregates (setting [1]), 692 ± 100 µM; at rat GAT-1, 1010 µM; on TAUT (setting [3]) it was 47 µM.
In the same order, the values of `NCCS(=O)(=O)O` [taurine, 2-aminoethanesulfonic acid] are 13200 µM, 67000 µM, 32300 µM and 48 ± 11 µM.
For `NCCC(=O)O` [β-alanine], the IC50 at hBGT-1 was 1100 µM; in the test on rat brain aggregates (Rattus norvegicus, read-out: IC50 for GABA transport, brain aggregates), 3000 µM; with rat brain aggregates (Rattus norvegicus, read-out: IC50 for inhibition of [3H]GABA uptake, rat brain aggregates, control, absence of NNC-711), 2930 µM; in the test with rat brain aggregates (Rattus norvegicus, read-out: IC50 for inhibition of [3H]GABA uptake, rat brain aggregates, with NNC-711, in the presence of 10 μM NNC-711), 33 µM; against rat GAT-1, 2920 ± 197 µM; at TAUT (setting [3]), 176 µM. The inhibition at 100 µM on GAT-3 (setting [2]) was 70 ± 1%.
Regarding hydroxynipecotic acid [OH-nipecotic], the IC50 at hBGT-1 (setting [4]) is 3840 µM; in the test with rat brain aggregates (setting [5]), 10 ± 1 µM; in the test on rat brain aggregates (setting [6]), 69 ± 10 µM; at TAUT (setting [3]), 4810 µM. Besides, the “% Inhibition of [3H]GABA uptake, GAT-3” value at GAT-3 (inhibitor 10 μM, 50 nM [3H]GABA, 10 minutes, 37° C.) is listed as 5 ± 2 (3) %.

For orientation: IC50 means the concentration that gives 50% inhibition. Usually inhibition stands for the percentage by which the read-out fell short of the control.
